Laboratory results published in US7125869B2, “Polycyclic compounds which modulate PPARγ type receptors and cosmetic/pharmaceutical compositions comprised thereof” (Galderma Research & Development, priority 2002, dated 2006).

These molecules were tested against T1, PPARγ (Homo sapiens, UniProt P37231) (assay: Crossover-curve PPAR transactivation test (HeLN cells, luciferase reporter), PPARγ). Details: HeLN cells stably transfected with Gal-hPPARγ; Schild regression against reference agonist; n.a. means not active; read-out: PPARγ Kd app.
T1 construct: Either way it is a handle, not a second protein
T1 sequence (P37231 238-505 limits assumed): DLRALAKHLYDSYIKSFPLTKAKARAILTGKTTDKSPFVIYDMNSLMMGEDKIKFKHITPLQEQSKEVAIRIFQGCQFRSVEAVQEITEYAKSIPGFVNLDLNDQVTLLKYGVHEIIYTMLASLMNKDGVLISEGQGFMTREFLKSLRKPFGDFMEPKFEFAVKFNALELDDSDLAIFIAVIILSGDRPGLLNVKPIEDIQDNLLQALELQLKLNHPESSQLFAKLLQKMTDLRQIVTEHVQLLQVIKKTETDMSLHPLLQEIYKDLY
Type: cell-based
Protocol: The activation of receptors with an agonist (activator) in HeLN cells leads to the expression of a reporter gene, luciferase, which, in the presence of a substrate, generates light. The modulation of the receptors is measured by quantifying the luminescence produced after incubating the cells in the presence of a reference agonist. The ligands displace the agonist from its site. The measurement of the activity is performed by quantifying the light produced. This measurement makes it possible to determine the modulatory activity of the compounds according to the invention by determining the constant that is the affinity of the molecule for the receptor. Since this value can fluctuate depending on the basal activity and the expression of the receptor, it is referred to as Kd apparent (KdApp in nM).
To determine this constant, “crossover curves” of the test product against a reference agonist are performed in a 96-well plate: 10 concentrations of the test product plus a concentration 0 are arranged in a line, and 7 concentrations of the agonist plus a concentration 0 are arranged in a column. This is 88 measurement points for 1 product and 1 receptor. The remaining 8 wells are used for repeatability controls.
Measurements are also taken for total agonist controls with the same products.
The HeLN cell lines used are stable transfectants containing the plasmids ERE-βGlob-Luc-SV-Neo (reporter gene) and PPAR (α, δ, γ) Gal-hPPAR. These cells are inoculated into 96-well plates at a rate of 10 000 cells per well in 100 μl of DMEM medium without phenol red and supplemented with 10% of defatted calf serum. The plates are then incubated at 37° C. and 7% CO2 for 16 hours.
The various dilutions of the test products and of the reference ligand are added at a rate of 5 μl per well. The plates are then incubated for 18 hours at 37° C. and 7% CO2. The culture medium is removed by turning over and 100 μl of a 1:1 PBS/luciferine mixture are added to each well. After 5 minutes, the plates are read by the luminescence detector.

Row | Kd [nM] | SMILES
1 | 250 | CCCCCCCC(=O)N(C)Cc1cccc(-c2ccc(N(C)c3ccccc3C(=O)O)cc2)c1 [Example 8, 2-(methyl-{3′-[(methyloctanoylamino)methyl]biphenyl-4-yl}amino)benzoic acid]
2 | 120 | COCCOCOc1ccc2cc(C(=O)N(C)Cc3cccc(-c4ccc(Nc5cccc(C(=O)N6CCC(C)CC6)c5)cc4)c3)ccc2c1 [Example 16, N-methyl-N-{4′-[3-(4-methylpiperidine-1-carbonyl)phenylamino]biphenyl-3-ylmethyl}-6-(2-methoxyethoxymethoxy)naphthalene-2-carboxylamide]
3 | 500 | COCCOCOc1ccc2cc(C(=O)N(C)Cc3cccc(-c4ccc(Nc5cccc(C(=O)N6CCOCC6)c5)cc4)c3)ccc2c1 [Example 17]
